From patent publication US8247211B2, “Glycopeptide antibiotics” (American Cyanamid Company, priority 2001, dated 2012)
In brackets after ≈: the same amount, converted by molar mass. Blank lines part the entries; values can stand above or below the compound they belong to.

Key:
Test in all cases: In vitro antibacterial evaluation: minimum inhibitory concentration (MIC), broth dilution method
Type in all cases: cell-based
Staphylococcus sp. = settings: broth dilution, 18 hours at 35° C.
Method: (§1) The minimum inhibitory concentration (MIC), the lowest concentration of the antibiotic which inhibits growth of the test organism, is determined by the broth dilution method using Muller-Hinton II […] (Baltimore Biological Laboratories) following the recommendations of the National Committee for Clinical Laboratory Standards [Methods for dilution antimicrobial susceptibility tests for bacteria that grow aerobically, approved standard M7-A2, National Committee for Clinical Laboratory Standards, Villanova, Pa].
(§2) An inoculum level of 5×10^5 CFU/mL, and a range of antibiotic concentrations (64-0.06 μg/mL) is used. […] The test organisms include a spectrum of Gram-positive bacteria comprised of Staphylococcus sp., Streptococcus sp. and Enterococcus sp. These organisms include recent clinical isolates that are resistant to methicillin, penicillin and/or vancomycin.

Enterococcus sp. = settings: for MIC Enterococcus faecalis (ATCC 29212): strain ATCC 29212; for MIC Enterococcus faecalis (GC 2242): strain GC 2242; for MIC Enterococcus faecium (GC 2243): strain GC 2243; for MIC Enterococcus faecalis (GC 2691): strain GC 2691; for MIC Enterococcus faecalis (GC 3059): strain GC 3059; for MIC Enterococcus faecalis (GC 4552): strain GC 4552; for MIC Enterococcus faecalis (GC 4553): strain GC 4553; for MIC Enterococcus faecalis (GC 4554): strain GC 4554; for MIC Enterococcus faecium (GC 4556): strain GC 4556; for MIC Enterococcus faecium (GC 4557): strain GC 4557; for MIC Enterococcus avium (GC 4558): strain GC 4558; for MIC Enterococcus faecalis (GC 6189): strain GC 6189
Method: as §1, §2

Escherichia coli = settings: for MIC Escherichia coli (GC 4559): strain GC 4559; for MIC Escherichi coli (GC 4560): strain GC 4560
Method: as §1, §2

Streptococcus sp. = settings: for MIC Streptococcus pyogenes (GC 4563): strain GC 4563; for MIC Streptococcus agalactiae (GC 4564): strain GC 4564
Method: as §1, §2

MIC Coagulase Negative Staphylococcus (GC 4547) (Staphylococcus sp.; 5×10^5 CFU/mL): 1 to 2 mg/L
MIC Coagulase Negative Staphylococcus (GC 4548) (Staphylococcus sp.; 5×10^5 CFU/mL): <0.5 to 1 mg/L
MIC Coagulase Negative Staphylococcus (GC 4549) (Staphylococcus sp.; 5×10^5 CFU/mL): <0.5 to 1 mg/L
MIC Coagulase Negative Staphylococcus (GC 4551) (Staphylococcus sp.; 5×10^5 CFU/mL): 1 mg/L (≈ 0.695 µM)
MIC Coagulase Negative Staphylococcus (GC 6257) (Staphylococcus sp.; 5×10^5 CFU/mL): 2 mg/L (≈ 1.39 µM)
MIC Coagulase Negative Staphylococcus (ID-3941) (Staphylococcus sp.; 5×10^5 CFU/mL): 1 mg/L (≈ 0.695 µM)
MIC Staphylococcus aureus (GC 3051) (Staphylococcus sp.; 5×10^5 CFU/mL): 0.5 mg/L (≈ 0.347 µM)
MIC Staphylococcus aureus (GC 3053) (Staphylococcus sp.; 5×10^5 CFU/mL): 0.5 mg/L (≈ 0.347 µM)
MIC Staphylococcus aureus (GC 4542) (Staphylococcus sp.; 5×10^5 CFU/mL): 0.5 to 1 mg/L
MIC Staphylococcus aureus (GC 4544) (Staphylococcus sp.; 5×10^5 CFU/mL): 0.5 to 1 mg/L
MIC Staphylococcus aureus (GC 4545) (Staphylococcus sp.; 5×10^5 CFU/mL): 0.5 to 1 mg/L
MIC Staphylococcus aureus-SMITH (GC 4543) (Staphylococcus sp.; 5×10^5 CFU/mL): 0.5 to 1 mg/L
MIC Staphylococcus aureus (GC 3051) (Staphylococcus sp.; strain GC 3051): 0.5 mg/L (≈ 0.347 µM)
MIC Staphylococcus aureus (GC 3053) (Staphylococcus sp.; strain GC 3053): 0.5 mg/L (≈ 0.347 µM)
MIC Staphylococcus aureus (GC 4542) (Staphylococcus sp.; strain GC 4542): 0.5 to 1 mg/L
MIC Staphylococcus aureus-SMITH (GC 4543) (Staphylococcus sp.; strain GC 4543): 0.5 to 1 mg/L
MIC Staphylococcus aureus (GC 4544) (Staphylococcus sp.; strain GC 4544): 0.5 to 1 mg/L
MIC Staphylococcus aureus (GC 4545) (Staphylococcus sp.; strain GC 4545): 0.5 to 1 mg/L
MIC Coagulase Negative Staphylococcus (GC 4547) (Staphylococcus sp.; strain GC 4547): 1 to 2 mg/L
MIC Coagulase Negative Staphylococcus (GC 4548) (Staphylococcus sp.; strain GC 4548): <0.5 to 1 mg/L
MIC Coagulase Negative Staphylococcus (GC 4549) (Staphylococcus sp.; strain GC 4549): <0.5 to 1 mg/L
MIC Coagulase Negative Staphylococcus (GC 4551) (Staphylococcus sp.; strain GC 4551): 1 mg/L (≈ 0.695 µM)
MIC Coagulase Negative Staphylococcus (GC 6257) (Staphylococcus sp.; strain GC 6257): 2 mg/L (≈ 1.39 µM)
MIC Coagulase Negative Staphylococcus (ID-3941) (Staphylococcus sp.; strain ID-3941): 1 mg/L (≈ 0.695 µM)
MIC Enterococcus faecalis (ATCC 29212) (Enterococcus sp.): 0.5 to 2 mg/L
MIC Enterococcus faecalis (GC 2242) (Enterococcus sp.): 0.5 to 1 mg/L
MIC Enterococcus faecium (GC 2243) (Enterococcus sp.): 1 to 2 mg/L
MIC Enterococcus faecalis (GC 2691) (Enterococcus sp.): 0.5 mg/L (≈ 0.347 µM)
MIC Enterococcus faecalis (GC 3059) (Enterococcus sp.): 0.5 mg/L (≈ 0.347 µM)
MIC Enterococcus faecalis (GC 4552) (Enterococcus sp.): 0.5 to 1 mg/L
MIC Enterococcus faecalis (GC 4553) (Enterococcus sp.): 0.5 to 1 mg/L
MIC Enterococcus faecalis (GC 4554) (Enterococcus sp.): 0.5 to 1 mg/L
MIC Enterococcus faecium (GC 4556) (Enterococcus sp.): 2 mg/L (≈ 1.39 µM)
MIC Enterococcus faecium (GC 4557) (Enterococcus sp.): 1 to 2 mg/L
MIC Enterococcus avium (GC 4558) (Enterococcus sp.): 0.5 to 2 mg/L
MIC Enterococcus faecalis (GC 6189) (Enterococcus sp.): 0.5 mg/L (≈ 0.347 µM)
MIC Escherichia coli (GC 4559) (Escherichia coli): 64 mg/L (≈ 44.5 µM)
MIC Escherichi coli (GC 4560) (Escherichia coli): 0.5 to 2 mg/L
MIC Streptococcus pyogenes (GC 4563) (Streptococcus sp.): >0.12 mg/L
MIC Streptococcus agalactiae (GC 4564) (Streptococcus sp.): <0.12 mg/L
MIC Streptococcus pyogenes (ID-3187) (Streptococcus sp.; strain ID-3187): <0.5 mg/L
Compound: CC(c1ccccc1)C1NC(=O)CNC(=O)C(CO)NC(=O)C(C(O)C2CNC(=N)N2C2OC(CO)C(O)C(O)C2O)NC(=O)C(C(O)C2CNC(=N)N2)NC(=O)C(Cc2ccc(OC3OC(CO)C(OC4OC5COC(c6ccc(C(C)(C)C)cc6)OC5C(O)C4O)C(O)C3O)cc2)NC1=O (stereo not drawn) [Example 147, Cyclo[glycyl-β-methylphenylalanyl-O-[4-O-[4,6-O-(4-tert-butylbenzylidene)hexonyranosyl]-hexopyranosyl]tyrosyl-3-(2-iminoimidazolidin-4-yl)seryl-3-(3-hexopyranosyl-2-iminoimidazolidin-4-yl)serylseryl]]
MIC Staphylococcus haemolyticus (GC 4546) (Staphylococcus sp.; 5×10^5 CFU/mL): 1 to 2 mg/L
MIC Staphylococcus haemolyticus (GC 4546) (Staphylococcus sp.; strain GC 4546): 1 to 2 mg/L

MIC Coagulase Negative Staphylococcus (GC 4547) (Staphylococcus sp.; 5×10^5 CFU/mL): 1 mg/L (≈ 0.694 µM)
MIC Coagulase Negative Staphylococcus (GC 4548) (Staphylococcus sp.; 5×10^5 CFU/mL): 1 mg/L (≈ 0.694 µM)
MIC Coagulase Negative Staphylococcus (GC 4549) (Staphylococcus sp.; 5×10^5 CFU/mL): 1 mg/L (≈ 0.694 µM)
MIC Coagulase Negative Staphylococcus (GC 4551) (Staphylococcus sp.; 5×10^5 CFU/mL): 1 mg/L (≈ 0.694 µM)
MIC Coagulase Negative Staphylococcus (GC 6257) (Staphylococcus sp.; 5×10^5 CFU/mL): 1 mg/L (≈ 0.694 µM)
MIC Staphylococcus aureus (ATCC 29213) (Staphylococcus sp.; 5×10^5 CFU/mL): 2 mg/L (≈ 1.39 µM)
MIC Staphylococcus aureus (GC 1131) (Staphylococcus sp.; 5×10^5 CFU/mL): 2 mg/L (≈ 1.39 µM)
MIC Staphylococcus aureus (GC 3051) (Staphylococcus sp.; 5×10^5 CFU/mL): 2 mg/L (≈ 1.39 µM)
MIC Staphylococcus aureus (GC 3053) (Staphylococcus sp.; 5×10^5 CFU/mL): 4 mg/L (≈ 2.78 µM)
MIC Staphylococcus aureus (GC 4541) (Staphylococcus sp.; 5×10^5 CFU/mL): 2 mg/L (≈ 1.39 µM)
MIC Staphylococcus aureus (GC 4542) (Staphylococcus sp.; 5×10^5 CFU/mL): 2 mg/L (≈ 1.39 µM)
MIC Staphylococcus aureus (GC 4544) (Staphylococcus sp.; 5×10^5 CFU/mL): 2 mg/L (≈ 1.39 µM)
MIC Staphylococcus aureus (GC 4545) (Staphylococcus sp.; 5×10^5 CFU/mL): 2 mg/L (≈ 1.39 µM)
MIC Staphylococcus aureus-SMITH (GC 4543) (Staphylococcus sp.; 5×10^5 CFU/mL): 2 mg/L (≈ 1.39 µM)
MIC Staphylococcus aureus (ATCC 29213) (Staphylococcus sp.; strain ATCC 29213): 2 mg/L (≈ 1.39 µM)
MIC Staphylococcus aureus (GC 1131) (Staphylococcus sp.; strain GC 1131): 2 mg/L (≈ 1.39 µM)
MIC Staphylococcus aureus (GC 3051) (Staphylococcus sp.; strain GC 3051): 2 mg/L (≈ 1.39 µM)
MIC Staphylococcus aureus (GC 3053) (Staphylococcus sp.; strain GC 3053): 4 mg/L (≈ 2.78 µM)
MIC Staphylococcus aureus (GC 4541) (Staphylococcus sp.; strain GC 4541): 2 mg/L (≈ 1.39 µM)
MIC Staphylococcus aureus (GC 4542) (Staphylococcus sp.; strain GC 4542): 2 mg/L (≈ 1.39 µM)
MIC Staphylococcus aureus-SMITH (GC 4543) (Staphylococcus sp.; strain GC 4543): 2 mg/L (≈ 1.39 µM)
MIC Staphylococcus aureus (GC 4544) (Staphylococcus sp.; strain GC 4544): 2 mg/L (≈ 1.39 µM)
MIC Staphylococcus aureus (GC 4545) (Staphylococcus sp.; strain GC 4545): 2 mg/L (≈ 1.39 µM)
MIC Coagulase Negative Staphylococcus (GC 4547) (Staphylococcus sp.; strain GC 4547): 1 mg/L (≈ 0.694 µM)
MIC Coagulase Negative Staphylococcus (GC 4548) (Staphylococcus sp.; strain GC 4548): 1 mg/L (≈ 0.694 µM)
MIC Coagulase Negative Staphylococcus (GC 4549) (Staphylococcus sp.; strain GC 4549): 1 mg/L (≈ 0.694 µM)
MIC Coagulase Negative Staphylococcus (GC 4551) (Staphylococcus sp.; strain GC 4551): 1 mg/L (≈ 0.694 µM)
MIC Coagulase Negative Staphylococcus (GC 6257) (Staphylococcus sp.; strain GC 6257): 1 mg/L (≈ 0.694 µM)
MIC Enterococcus faecalis (ATCC 29212) (Enterococcus sp.): 8 mg/L (≈ 5.55 µM)
MIC Enterococcus faecalis (GC 2242) (Enterococcus sp.): 8 mg/L (≈ 5.55 µM)
MIC Enterococcus faecium (GC 2243) (Enterococcus sp.): 8 mg/L (≈ 5.55 µM)
MIC Enterococcus faecalis (GC 2691) (Enterococcus sp.): 8 mg/L (≈ 5.55 µM)
MIC Enterococcus faecalis (GC 3059) (Enterococcus sp.): 8 mg/L (≈ 5.55 µM)
MIC Enterococcus faecalis (GC 4552) (Enterococcus sp.): 8 mg/L (≈ 5.55 µM)
MIC Enterococcus faecalis (GC 4553) (Enterococcus sp.): 8 mg/L (≈ 5.55 µM)
MIC Enterococcus faecalis (GC 4554) (Enterococcus sp.): 8 mg/L (≈ 5.55 µM)
MIC Enterococcus faecium (GC 4556) (Enterococcus sp.): 8 mg/L (≈ 5.55 µM)
MIC Enterococcus faecium (GC 4557) (Enterococcus sp.): 2 mg/L (≈ 1.39 µM)
MIC Enterococcus avium (GC 4558) (Enterococcus sp.): 8 mg/L (≈ 5.55 µM)
MIC Enterococcus faecalis (GC 6189) (Enterococcus sp.): 8 mg/L (≈ 5.55 µM)
MIC Escherichia coli (ATCC 25922) (Escherichia coli; strain ATCC 25922): >64 mg/L
MIC Escherichia coli (GC 4559) (Escherichia coli): 64 mg/L (≈ 44.4 µM)
MIC Escherichi coli (GC 4560) (Escherichia coli): <0.5 mg/L
MIC Streptococcus pneumoniae (ATCC 6301) (Streptococcus sp.; strain ATCC 6301): <0.5 mg/L
MIC Streptococcus pneumoniae (GC 1894) (Streptococcus sp.; strain GC 1894): <0.5 mg/L
MIC Streptococcus pyogenes (GC 4563) (Streptococcus sp.): <0.5 mg/L
MIC Streptococcus agalactiae (GC 4564) (Streptococcus sp.): 1 mg/L (≈ 0.694 µM)
MIC Streptococcus pneumoniae (GC 4565) (Streptococcus sp.; strain GC 4565): 2 mg/L (≈ 1.39 µM)
Compound: CC(c1ccccc1)C1NC(=O)CNC(=O)C(CO)NC(=O)C(C(O)C2CNC(=N)N2C2OC(CO)C(O)C(O)C2O)NC(=O)C(C(O)C2CNC(=N)N2)NC(=O)C(Cc2ccc(OC3OC(CO)C(OC4OC5COC(c6ccc7c(c6)OCCO7)OC5C(O)C4O)C(O)C3O)cc2)NC1=O (stereo not drawn) [Example 149]
MIC Staphylococcus haemolyticus (GC 4546) (Staphylococcus sp.; 5×10^5 CFU/mL): 1 mg/L (≈ 0.694 µM)
MIC Staphylococcus haemolyticus (GC 4546) (Staphylococcus sp.; strain GC 4546): 1 mg/L (≈ 0.694 µM)
